Assay results published in article PMC10762035, “Molecular basis of human trace amine-associated receptor 1 activation” (Nature Communications, 2024).
Where a chain is given by its changes, count along the chain named. Where “and” joins values, the source holds several entries; their conditions need not be identical. Equal values may be shown once.

Columns and labels:
Format in all cases: cell-based
hTA1 C178S = biological target: T1, hTA1 C178S (Homo sapiens, UniProt Q96RJ0, C178S); test: GloSensor cAMP accumulation assay, C178S mutant; details: log[Compound], M = -12.522; single replicates
T1 construct: expressed in transfected cells; host or cells: HEK293T
T1 sequence (Q96RJ0 1-339 C178S): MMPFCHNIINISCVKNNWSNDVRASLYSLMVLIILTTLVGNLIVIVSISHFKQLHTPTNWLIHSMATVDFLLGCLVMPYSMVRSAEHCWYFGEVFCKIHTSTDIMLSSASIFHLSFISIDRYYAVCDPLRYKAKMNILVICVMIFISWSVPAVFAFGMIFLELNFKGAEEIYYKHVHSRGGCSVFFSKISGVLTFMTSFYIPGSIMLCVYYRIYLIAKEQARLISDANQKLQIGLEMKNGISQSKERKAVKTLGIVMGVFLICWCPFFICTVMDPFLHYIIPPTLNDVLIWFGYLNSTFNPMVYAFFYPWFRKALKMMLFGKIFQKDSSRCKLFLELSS

hTA1 C5S = biological target: T2, hTA1 C5S (Homo sapiens, UniProt Q96RJ0, C5S); test: GloSensor cAMP accumulation assay, C5S mutant; details: for C5S - Normalized Luminescence Counts (N=2): log[Compound], single wells
T2 construct: expressed in transfected cells; host or cells: HEK293T
T2 sequence (Q96RJ0 1-339 C5S): T1 sequence (Q96RJ0 1-339 C178S) with C5S, S178C

hTA1 V184P = biological target: T3, hTA1 V184P (Homo sapiens, UniProt Q96RJ0, V184P); test: GloSensor cAMP accumulation assay, V184P mutant; details: for cAMP accumulation response, single replicate values (source data, Supplementary Figure 5): hTA1 V184P (N=2), log[Compound]
T3 construct: expressed in transfected cells; host or cells: HEK293T
T3 sequence (Q96RJ0 1-339 V184P): T1 sequence (Q96RJ0 1-339 C178S) with S178C, V184P

[1] = hTA1 V184P mutant minus WT average

In the case of NCCc1ccccc1 [β-PEA, β-phenethylamine], the “C178S - Normalized Luminescence Counts (N=2)” value (hTA1 C178S) is reported as -0.452 and -1.34 and -0.6856 and -1.915 and -0.9575 and -0.4489, the “Span ± SEM (Emax normalized to β-PEA)” value (hTA1 C5S; C5S, n=2) is reported as 100 ± 2.22 and the “pEC50 ± SEM” value (hTA1 C5S; C5S, n=2) is reported as 7.04 ± 0.05. For the same molecule, the EC50 (hTA1 C5S; C5S, n=2, read-out: EC50) was 90.7 nM, the “ΔEmax values (each mutant value - WT average), Mean” value (hTA1 C5S; hTA1 C5S minus WT average) was 0 and the “ΔpEC50 values (each mutant value - WT average), Mean” value (hTA1 C5S; hTA1 C5S minus WT average) was 0.0587 and -0.1606. The “pEC50 values, Mean” value (hTA1 C5S; hTA1 C5S, mean of 3 replicates, one line per independent experiment) was 7.152 and 6.9329, the “Emax values, Mean” value (hTA1 C5S; hTA1 C5S, β-PEA = 100, mean of 3 replicates, one line per independent experiment) was 100 and the “C5S - Normalized Luminescence Counts (N=2)” value (hTA1 C5S; M = -5) was 105.865 and 101.779 and 112.458 and 98.7643 and 96.9001 and 118.028. For the same molecule, the “C5S - Normalized Luminescence Counts (N=2)” value (hTA1 C5S; M = -5.522) was 88.1188 and 112.932 and 94.5762 and 114.438 and 73.9771 and 93.1716, the “C5S - Normalized Luminescence Counts (N=2)” value (hTA1 C5S; M = -6) was 83.9419 and 90.8734 and 98.6952 and 79.8459 and 79.6388 and the “C5S - Normalized Luminescence Counts (N=2)” value (hTA1 C5S; M = -6.522) was 76.5362 and 74.7073 and 70.3723 and 75.427 and 66.8654 and 70.3867. For the same molecule, the “C5S - Normalized Luminescence Counts (N=2)” value (hTA1 C5S; M = -7) was 61.9506 and 59.2638 and 58.7445 and 43.9424 and 45.3233 and 47.3256, the “C5S - Normalized Luminescence Counts (N=2)” value (hTA1 C5S; M = -8.522) was 3.721 and 3.676 and 4.421 and 4.379 and 2.308 and 3.965 and the “reduction in potency vs wild type” value (hTA1 V184P; V184P) was 3 fold. The “Span ± SEM (Emax normalized to β-PEA)” value (hTA1 V184P; V184P, n=2) was 100 ± 1.96, the “pEC50 ± SEM” value (hTA1 V184P; V184P, n=2) was 6.49 ± 0.04 and the EC50 (hTA1 V184P; V184P, n=2, read-out: EC50) was 321 nM. The “cAMP accumulation response, single replicate values (source data, Supplementary Figure 5)” value (“cAMP accumulation response” below) (hTA1 V184P; M = -5) was 83.3536 and 92.5674 and 99.6475 and 104.399 and 96.8854 and 100.441, the “cAMP accumulation response” value (hTA1 V184P; M = -5.522) was 95.962 and 88.397 and 84.7115 and 96.8487 and 73.2445 and 97.875 and the “cAMP accumulation response” value (hTA1 V184P; M = -6) was 78.5043 and 69.7754 and 70.1634 and 94.7595 and 71.9984 and 76.7632. The “cAMP accumulation response” value (hTA1 V184P; M = -6.522) was 42.813 and 37.5757 and 33.5992 and 65.1077 and 56.2745 and 55.2115, the “cAMP accumulation response” value (hTA1 V184P; M = -7) was 14.3957 and 16.7234 and 14.2987 and 30.7277 and 25.9995 and 32.4504 and the “cAMP accumulation response” value (hTA1 V184P; M = -7.522) was 8.4795 and 4.503 and 3.727 and 12.5114 and 6.1339 and 9.909. The “cAMP accumulation response” value (hTA1 V184P; M = -8) was 2.078 and 0.1386 and 0.7205 and 5.731 and 6.5 and 4.265, the “cAMP accumulation response” value (hTA1 V184P; M = -8.522) was 1.496 and -0.05538 and 0.3326 and 2.249 and 1.809 and 2.505 and the “cAMP accumulation response” value (hTA1 V184P; M = -9) was 1.011 and 0.1386 (2×) and 2.652 and -0.3902 and 1.626. For the same molecule, the “cAMP accumulation response” value (hTA1 V184P; M = -9.522) was 0.7205 and -0.2494 and 0.4296 and -0.02371 and -1.123 and -0.1703, the “cAMP accumulation response” value (hTA1 V184P; M = -10) was 1.205 and -0.05538 and 0.3326 and -0.207 and -0.5002 and 0.4161 and the “cAMP accumulation response” value (hTA1 V184P; M = -10.522) was 0.8175 and 0.6235 and -0.1524 and -0.3169 and -1.27 and -0.6101. The “cAMP accumulation response” value (hTA1 V184P; M = -11) was 0.04161 and -0.4433 and -0.1524 and 0.5261 and 0.1229 and -0.4269, the “cAMP accumulation response” value (hTA1 V184P; M = -11.522) was 1.205 and 0.1386 and 0.2356 and 0.7826 and 0.5261 and 0.3062 and the “cAMP accumulation response” value (hTA1 V184P; M = -12) was 0.8175 (3×) and -0.3902 and -0.5735 and 0.0496. The “cAMP accumulation response” value (hTA1 V184P; M = -12.522) was 2.175 and 1.496 and 1.205 and 0.08625 and 0.1962 and -0.7201, the “ΔEmax values (each mutant value - WT average), Mean” value (hTA1 V184P; [1]) was 0 and the “ΔpEC50 values (each mutant value - WT average), Mean” value (hTA1 V184P; [1]) was -0.7478 and -0.4527. The “pEC50 values, Mean” value (hTA1 V184P; hTA1 V184P mutant, Figure 3B source data, each grid row a separate experiment, 3 replicates) was 6.346 and 6.641 and the “Emax values, Mean” value (hTA1 V184P; hTA1 V184P mutant, β-PEA set to 100, each grid row a separate experiment, 3 replicates) was 100.
